The values that follow are results of earlier work, collected in patent publication US6017399A, “Method for controlling and removing solid deposits from a surface of a component of a steam generating system” (priority 1998, dated 2000).

Broadly, the pKa is the negative logarithm of the acid dissociation constant.

For one series the following is noted: 25° C.
As to `CNC` [Dimethylamine], the pKa entry is given as “about 10.61”.

The series is the same for the next values; noted with them: 25° C.; Table 4.
Regarding `CCCN(CCC)CCC` [Tri-N-Propylamine], the pKa was 10.65. Consider `CC(C)CNCC(C)C` [Diisobutylamine], for which the pKa was 10.82. For the molecule `NCCCCCCN` [1,6 Diaminohexane], the pKa is on record as 10.93.

Turning to `C1CCC2=NCCCN2CC1` [1,5-Diazabicyclo (5,4,0) Unde-5-ane], the pKa is given as 13.40.

For `CCCCN` [Mono-N-Butylamine], the pKa is recorded as 10.61.

For the molecule `CCNC1CCCCC1` [N-Ethylcyclohexylamine], the pKa is listed as 12.00. Turning to `CN` [Monomethylamine], the pKa is on record as 10.62.

`NCCCCCCCCN` [1,8 Diaminooctane]: the pKa is 10.937. With `CN(C)C` [Trimethylamine], the pKa is reported as 10.71. As to Dimethylamino-propylamine, the pKa is listed as 11.70. Consider `CNC` [Dimethylamine], for which the pKa is on record as 10.61. Consider `CCCCNCCCC` [Di-N-Butylamine], for which the pKa was 11.31. As to `NCCCCCN` [1,5 Diaminopentane], the pKa was 10.915.

Staying with this series, now noted: about 250° C.
In the case of `CNC` [Dimethylamine], the pKa result is listed as “about 6.50”.
